Source: PMC4055736, “Functional Characterization of a Novel Family of Acetylcholine-Gated Chloride Channels in Schistosoma mansoni” (PLoS Pathogens, 2014)

Assays:
Type in all cases: cell-based
SmACC-1 [1] = target: T1, SmACC-1 (Schistosoma mansoni, UniProt V5WAE7); experiment: YFP halide sensor iodide flux assay in transfected HEK-293 cells; block of […] nicotine response by […] antagonist
T1 construct: gene ACC-1; full-length, human codon-optimized, C-terminal FLAG tag; homomeric channel
T1 sequence (V5WAE7 24-804): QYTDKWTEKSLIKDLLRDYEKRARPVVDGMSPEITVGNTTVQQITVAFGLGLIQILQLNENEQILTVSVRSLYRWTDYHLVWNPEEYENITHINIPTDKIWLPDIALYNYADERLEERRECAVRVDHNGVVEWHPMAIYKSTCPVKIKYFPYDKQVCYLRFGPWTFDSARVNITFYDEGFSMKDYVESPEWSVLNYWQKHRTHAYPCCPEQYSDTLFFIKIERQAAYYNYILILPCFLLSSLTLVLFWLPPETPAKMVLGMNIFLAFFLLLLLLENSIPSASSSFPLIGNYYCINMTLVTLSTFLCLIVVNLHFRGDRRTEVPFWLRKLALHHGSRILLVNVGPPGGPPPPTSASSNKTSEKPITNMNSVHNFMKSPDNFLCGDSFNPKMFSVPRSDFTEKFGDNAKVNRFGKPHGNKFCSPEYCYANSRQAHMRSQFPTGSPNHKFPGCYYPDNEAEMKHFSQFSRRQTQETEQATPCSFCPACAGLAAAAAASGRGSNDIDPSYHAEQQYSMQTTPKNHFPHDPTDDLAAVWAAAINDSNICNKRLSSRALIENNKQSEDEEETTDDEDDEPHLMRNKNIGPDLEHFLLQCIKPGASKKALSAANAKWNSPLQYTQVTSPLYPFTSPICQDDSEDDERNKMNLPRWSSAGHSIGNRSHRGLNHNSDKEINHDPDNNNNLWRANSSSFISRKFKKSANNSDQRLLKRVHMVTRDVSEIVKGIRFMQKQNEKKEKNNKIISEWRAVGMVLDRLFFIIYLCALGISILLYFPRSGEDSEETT

SmACC-1 [2] = target: T1, SmACC-1; experiment: YFP halide sensor iodide flux assay in transfected HEK-293 cells, […] agonist
SmACC-1 [3] = target: T1, SmACC-1; experiment: YFP halide sensor iodide flux assay in transfected HEK-293 cells, dose response (agonist)

Structure (SMILES)	YFP halide sensor iodide flux assay in transfected HEK-293 cells, 100 μM agonist (SmACC-1 [2])	other results
COc1cc2c3cc1Oc1cc(ccc1O)C[C@@H]1c4c(cc(OC)c(O)c4Oc4ccc(cc4)C[C@@H]3N(C)CC2)CC[N+]1(C)C [D-tubocurarine]		YFP halide sensor iodide flux assay in transfected HEK-293 cells; block of 100 μ (SmACC-1 [1]): only D-tubocurarine was able to significantly block the activation of SmACC-1 by nicotine
COC(=O)C1=CCCN(C)C1 [arecoline]	statistically significant responses were also seen with other cholinergic agonists (ACh, choline chloride, carbachol and arecoline)	
C[N+](C)(C)CCOC(N)=O [carbachol]	statistically significant responses were also seen with other cholinergic agonists (ACh, choline chloride, carbachol and arecoline)	
C[N+](C)(C)CCO [choline]	statistically significant responses were also seen with other cholinergic agonists (ACh, choline chloride, carbachol and arecoline)	
CN1CCC[C@H]1c1cccnc1 [nicotine]		EC50 (SmACC-1 [3]): 4.3 ± 1.4 µM
